The results in this text go back to ChEMBL document CHEMBL5150077, “Identification of TUL01101: A Novel Potent and Selective JAK1 Inhibitor for the Treatment of Rheumatoid Arthritis” (J Med Chem, 2022).

Data set [1] in a line: Metabolic stability in human hepatocytes assessed as intrinsic clearance at 1 uM incubated for 90 mins by LC/MS/MS analysis. The format is ADME, cell-based, Hepatocyte.
The nature of data set [2]: Clearance in C57BL/6 mouse at 2 mg/kg, iv measured for 24 hrs by LC/MS/MS analysis. The settings on record: in vivo. The format is ADME, organism-based.
Data set [3] can be described thus: Volume of distribution at steady state in C57BL/6 mouse at 15 mg/kg, po or 2 mg/kg, iv measured for 24 hrs by LC/MS/MS analysis. The data set is classed as ADME, organism-based. The settings on record: in vivo.
The nature of data set [4]: Elimination half life in C57BL/6 mouse at 15 mg/kg, po measured for 24 hrs by LC/MS/MS analysis. The format is ADME, organism-based. The note with it: in vivo, read-out: beta t1/2 (converted).
A short description of data set [5]: Metabolic stability in mouse hepatocytes assessed as intrinsic clearance at 1 uM incubated for 90 mins by LC/MS/MS analysis. The data set is classed as ADME, cell-based, Hepatocyte.
Data set [6] can be described thus: Microsomal stability in human liver microsomes assessed as intrinsic clearance at 1 uM incubated for 60 mins in presence of NADPH regenerating system by LC-MS/MS analysis. The format is ADME, Microsome. The note with it: read-out: CLH.
Data set [7] is described as follows: Metabolic stability in rat hepatocytes assessed as intrinsic clearance at 1 uM incubated for 90 mins by LC/MS/MS analysis. The format is ADME, cell-based, Hepatocyte.
The nature of data set [8]: Plasma protein binding in mouse assessed as unbound fraction at 2 uM incubated for 4 hrs by LC/MS/MS based balanced dialysis method.
Data set [9] can be described thus: Microsomal stability in rat liver microsomes assessed as intrinsic clearance at 1 uM incubated for 60 mins in presence of NADPH regenerating system by LC-MS/MS analysis. The data set is classed as ADME, Microsome. The settings on record: read-out: CLH.
A short description of data set [10]: Microsomal stability in mouse liver microsomes assessed as intrinsic clearance at 1 uM incubated for 60 mins in presence of NADPH regenerating system by LC-MS/MS analysis. The format is ADME, Microsome. The settings on record: read-out: CLH. On the technique in general: Liver microsomes are a subcellular fraction often used to study metabolism.
The nature of data set [11]: Plasma protein binding in human assessed as unbound fraction at 2 uM incubated for 4 hrs by LC/MS/MS based balanced dialysis method.
Data set [12] can be described thus: Plasma protein binding in rat assessed as unbound fraction at 2 uM incubated for 4 hrs by LC/MS/MS based balanced dialysis method.
A further data set addresses T1, Cytochrome P450 1A2 (Homo sapiens, UniProt P05177).
T1 sequence (P05177 whole entry): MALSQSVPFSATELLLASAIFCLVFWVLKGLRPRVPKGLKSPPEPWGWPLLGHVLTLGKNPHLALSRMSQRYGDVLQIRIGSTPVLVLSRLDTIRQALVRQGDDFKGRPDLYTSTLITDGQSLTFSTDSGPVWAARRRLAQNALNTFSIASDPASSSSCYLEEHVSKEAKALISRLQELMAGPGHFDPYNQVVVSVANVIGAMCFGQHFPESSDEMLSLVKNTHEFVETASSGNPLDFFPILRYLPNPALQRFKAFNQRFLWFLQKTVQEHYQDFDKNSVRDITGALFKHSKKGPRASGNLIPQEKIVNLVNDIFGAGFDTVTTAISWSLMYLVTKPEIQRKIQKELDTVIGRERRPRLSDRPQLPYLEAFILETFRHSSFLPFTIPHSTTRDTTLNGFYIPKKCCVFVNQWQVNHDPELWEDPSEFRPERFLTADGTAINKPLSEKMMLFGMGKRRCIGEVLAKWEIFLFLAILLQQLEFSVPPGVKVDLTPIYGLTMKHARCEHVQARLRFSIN
Briefly: Inhibition of CYP1A2 in human liver microsomes incubated in presence NADPH by LC-MS/MS analysis.

Another data set concerns the target Cytochrome P450 2C9 (Homo sapiens, UniProt P11712). Briefly: Inhibition of CYP2C9 in human liver microsomes incubated in presence NADPH by LC-MS/MS analysis.
Data set [13] addresses Tyrosine-protein kinase JAK1 (Homo sapiens, UniProt P23458). In words: Inhibition of recombinant human JAK1 using MGEEPLYWSFPAKKK as substrate incubated for 40 mins in presence of Mg/ATP mixture by [gamma p33]-ATP based scintillation counting method.
The nature of data set [14]: Efflux ratio of apparent permeability from basolateral to apical side over apical to basolateral side in human Caco-2 cells at 10 uM incubated for 120 mins by LC-MS/MS analysis.
The nature of data set [15]: Apparent permeability across apical to basolateral side in human Caco-2 cells at 10 uM measured after 120 mins by LC-MS/MS analysis. The settings on record: Caco-2. For orientation: Caco-2 cells form a polarised layer with tight junctions and transporters.
The species entered for data set [16] is Homo sapiens. In words: Selectivity index, ratio of IC50 for inhibition of recombinant human TYK2 to IC50 for inhibition of recombinant human JAK1.
Another data set concerns the target Cytochrome P450 2C19 (Homo sapiens, UniProt P33261). Briefly: Inhibition of CYP2C19 in human liver microsomes incubated in presence NADPH by LC-MS/MS analysis.
Data set [17] concerns the target Non-receptor tyrosine-protein kinase TYK2 (Homo sapiens, UniProt P29597). In words: Inhibition of recombinant human TYK2 using GGMEDIYFEFMGGKKK as substrate incubated for 40 mins in presence of Mg/ATP mixture by [gamma p33]-ATP based scintillation counting method.
The target in a further data set is T2, Cytochrome P450 2C8 (Homo sapiens, UniProt P10632).
T2 sequence (P10632 whole entry): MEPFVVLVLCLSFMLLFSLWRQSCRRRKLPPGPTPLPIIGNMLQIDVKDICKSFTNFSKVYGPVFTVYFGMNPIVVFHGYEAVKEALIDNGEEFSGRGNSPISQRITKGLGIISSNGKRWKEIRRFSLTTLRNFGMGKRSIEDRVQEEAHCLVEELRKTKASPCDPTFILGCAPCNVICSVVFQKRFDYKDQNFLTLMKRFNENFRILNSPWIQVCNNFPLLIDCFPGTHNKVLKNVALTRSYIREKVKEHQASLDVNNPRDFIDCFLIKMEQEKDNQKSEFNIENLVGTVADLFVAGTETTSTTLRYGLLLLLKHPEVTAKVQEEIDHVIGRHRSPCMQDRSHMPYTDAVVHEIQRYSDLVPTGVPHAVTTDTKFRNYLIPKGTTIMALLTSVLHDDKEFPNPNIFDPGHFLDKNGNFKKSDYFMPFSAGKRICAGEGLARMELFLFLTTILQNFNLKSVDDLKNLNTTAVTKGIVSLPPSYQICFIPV
In words: Inhibition of CYP2C8 in human liver microsomes incubated in presence NADPH by LC-MS/MS analysis.

In data set [18] the target is Tyrosine-protein kinase JAK2 (Homo sapiens, UniProt O60674). Briefly: Inhibition of recombinant human JAK2 using KTFCGTPEYLAPEVRREPRILSEEEQEMFRDFDYIADWC as substrate incubated for 40 mins in presence of Mg/ATP mixture by [gamma p33]-ATP based scintillation counting method.
Sequence of Tyrosine-protein kinase JAK2 (O60674 whole entry): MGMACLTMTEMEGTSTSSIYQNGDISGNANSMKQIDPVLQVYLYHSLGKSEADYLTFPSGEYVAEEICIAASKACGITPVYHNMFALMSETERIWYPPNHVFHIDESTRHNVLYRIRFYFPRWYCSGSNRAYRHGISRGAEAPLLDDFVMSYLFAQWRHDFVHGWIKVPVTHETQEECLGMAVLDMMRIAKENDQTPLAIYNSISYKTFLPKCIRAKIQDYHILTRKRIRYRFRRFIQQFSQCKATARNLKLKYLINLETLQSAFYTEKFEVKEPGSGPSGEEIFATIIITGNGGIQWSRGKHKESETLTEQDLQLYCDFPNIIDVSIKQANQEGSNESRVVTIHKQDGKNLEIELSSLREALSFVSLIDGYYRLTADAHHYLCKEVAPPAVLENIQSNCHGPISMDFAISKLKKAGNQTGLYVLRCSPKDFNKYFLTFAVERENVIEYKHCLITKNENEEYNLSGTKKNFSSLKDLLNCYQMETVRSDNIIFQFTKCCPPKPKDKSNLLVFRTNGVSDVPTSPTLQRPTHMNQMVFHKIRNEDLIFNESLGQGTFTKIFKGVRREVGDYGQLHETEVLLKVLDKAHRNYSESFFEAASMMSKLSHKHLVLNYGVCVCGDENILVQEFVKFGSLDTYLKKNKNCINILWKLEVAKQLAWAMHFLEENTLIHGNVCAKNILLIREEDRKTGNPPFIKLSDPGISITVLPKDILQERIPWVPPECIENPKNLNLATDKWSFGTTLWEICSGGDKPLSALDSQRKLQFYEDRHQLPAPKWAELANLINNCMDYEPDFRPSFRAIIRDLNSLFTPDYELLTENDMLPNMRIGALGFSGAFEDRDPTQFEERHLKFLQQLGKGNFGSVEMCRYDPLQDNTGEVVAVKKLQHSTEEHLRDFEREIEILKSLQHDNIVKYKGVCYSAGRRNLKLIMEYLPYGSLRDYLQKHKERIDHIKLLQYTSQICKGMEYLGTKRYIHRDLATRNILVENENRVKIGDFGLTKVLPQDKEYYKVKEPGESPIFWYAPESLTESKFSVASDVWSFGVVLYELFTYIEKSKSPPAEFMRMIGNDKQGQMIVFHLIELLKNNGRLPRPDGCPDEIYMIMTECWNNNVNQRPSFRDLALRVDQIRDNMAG
The species named for data set [19] is Homo sapiens. In words: Selectivity index, ratio of IC50 for inhibition of recombinant human JAK2 to IC50 for inhibition of recombinant human JAK1.
A short description of data set [20]: Apparent permeability across basolateral to apical side in human Caco-2 cells at 10 uM measured after 120 mins by LC-MS/MS analysis.
The next data set deals with Cytochrome P450 3A4 (Homo sapiens, UniProt P08684). Briefly: Inhibition of CYP3A4 in human liver microsomes incubated in presence NADPH by LC-MS/MS analysis.
Sequence of Cytochrome P450 3A4 (P08684 whole entry): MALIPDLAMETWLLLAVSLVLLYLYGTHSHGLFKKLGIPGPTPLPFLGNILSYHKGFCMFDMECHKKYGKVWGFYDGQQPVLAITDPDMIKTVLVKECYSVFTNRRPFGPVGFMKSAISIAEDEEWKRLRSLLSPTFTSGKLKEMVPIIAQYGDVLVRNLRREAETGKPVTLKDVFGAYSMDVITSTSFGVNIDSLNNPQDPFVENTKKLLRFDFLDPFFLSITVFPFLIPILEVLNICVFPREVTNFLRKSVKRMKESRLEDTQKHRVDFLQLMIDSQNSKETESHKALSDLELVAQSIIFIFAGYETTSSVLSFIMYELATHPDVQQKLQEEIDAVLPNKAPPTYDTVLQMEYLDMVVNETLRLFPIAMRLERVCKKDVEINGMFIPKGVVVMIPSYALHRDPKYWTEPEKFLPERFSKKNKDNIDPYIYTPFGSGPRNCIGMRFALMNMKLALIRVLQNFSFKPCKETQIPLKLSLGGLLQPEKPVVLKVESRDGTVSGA

The structures appear in SMILES notation. Where only a bound is given, the exact number is not on record here.

The clearance is the volume of plasma or blood freed of the substance per unit of time. Usually fraction unbound stands for the share of the substance not bound to proteins or other matrix. What is called IC50 is the point on the concentration scale where inhibition reaches its midpoint. For orientation: efflux ratio means the permeability from basolateral to apical divided by that in the opposite direction, in the common usage. The term Papp A→B denotes the apparent permeability from the apical to the basolateral side of a cell layer. As a reminder, the Papp B→A is how fast a substance crosses the layer from the basolateral side.

Sequence of Tyrosine-protein kinase JAK1 (P23458 whole entry): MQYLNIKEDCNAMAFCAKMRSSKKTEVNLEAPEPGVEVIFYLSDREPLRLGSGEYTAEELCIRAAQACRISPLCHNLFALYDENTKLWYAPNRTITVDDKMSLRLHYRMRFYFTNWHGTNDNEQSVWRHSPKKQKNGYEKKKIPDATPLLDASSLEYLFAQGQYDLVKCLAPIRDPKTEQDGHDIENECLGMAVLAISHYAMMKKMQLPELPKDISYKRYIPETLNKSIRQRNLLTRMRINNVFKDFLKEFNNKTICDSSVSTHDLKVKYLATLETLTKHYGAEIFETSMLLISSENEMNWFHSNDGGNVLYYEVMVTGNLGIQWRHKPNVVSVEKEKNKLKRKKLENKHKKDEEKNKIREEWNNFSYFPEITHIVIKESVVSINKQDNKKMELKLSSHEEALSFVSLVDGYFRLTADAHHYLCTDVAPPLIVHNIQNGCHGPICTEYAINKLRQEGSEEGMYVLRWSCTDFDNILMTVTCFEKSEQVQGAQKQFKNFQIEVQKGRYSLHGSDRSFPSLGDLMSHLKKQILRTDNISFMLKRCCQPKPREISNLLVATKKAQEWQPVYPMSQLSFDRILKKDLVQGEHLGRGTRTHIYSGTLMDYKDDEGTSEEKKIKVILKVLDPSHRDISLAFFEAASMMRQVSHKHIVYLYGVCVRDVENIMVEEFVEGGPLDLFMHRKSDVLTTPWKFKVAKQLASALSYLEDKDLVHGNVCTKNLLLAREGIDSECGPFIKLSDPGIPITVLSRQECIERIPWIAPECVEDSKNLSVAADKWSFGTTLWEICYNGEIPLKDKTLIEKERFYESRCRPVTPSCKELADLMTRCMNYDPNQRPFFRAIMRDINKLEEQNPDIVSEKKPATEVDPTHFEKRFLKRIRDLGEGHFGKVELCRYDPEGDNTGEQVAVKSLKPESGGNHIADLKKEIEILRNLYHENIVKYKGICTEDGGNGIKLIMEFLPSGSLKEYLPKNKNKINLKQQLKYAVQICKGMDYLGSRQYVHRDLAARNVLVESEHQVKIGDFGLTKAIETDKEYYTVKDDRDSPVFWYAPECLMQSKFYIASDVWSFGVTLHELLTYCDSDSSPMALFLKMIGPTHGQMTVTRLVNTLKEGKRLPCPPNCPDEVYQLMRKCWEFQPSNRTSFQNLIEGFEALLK
Sequence of Cytochrome P450 2C19 (P33261 whole entry): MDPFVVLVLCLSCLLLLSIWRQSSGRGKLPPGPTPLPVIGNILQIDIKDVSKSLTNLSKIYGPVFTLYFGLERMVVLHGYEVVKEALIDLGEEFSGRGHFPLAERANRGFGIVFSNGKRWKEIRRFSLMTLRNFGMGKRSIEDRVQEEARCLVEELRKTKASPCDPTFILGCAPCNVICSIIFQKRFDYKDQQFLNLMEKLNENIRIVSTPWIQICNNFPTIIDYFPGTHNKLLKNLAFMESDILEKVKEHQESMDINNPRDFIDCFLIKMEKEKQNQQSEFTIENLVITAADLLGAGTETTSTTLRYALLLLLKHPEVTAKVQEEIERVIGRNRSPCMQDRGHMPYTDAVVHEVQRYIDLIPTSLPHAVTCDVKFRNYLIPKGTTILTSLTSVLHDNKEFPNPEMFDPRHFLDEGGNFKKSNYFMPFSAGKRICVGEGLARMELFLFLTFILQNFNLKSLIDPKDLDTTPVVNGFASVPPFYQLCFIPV
Sequence of Cytochrome P450 2C9 (P11712 whole entry): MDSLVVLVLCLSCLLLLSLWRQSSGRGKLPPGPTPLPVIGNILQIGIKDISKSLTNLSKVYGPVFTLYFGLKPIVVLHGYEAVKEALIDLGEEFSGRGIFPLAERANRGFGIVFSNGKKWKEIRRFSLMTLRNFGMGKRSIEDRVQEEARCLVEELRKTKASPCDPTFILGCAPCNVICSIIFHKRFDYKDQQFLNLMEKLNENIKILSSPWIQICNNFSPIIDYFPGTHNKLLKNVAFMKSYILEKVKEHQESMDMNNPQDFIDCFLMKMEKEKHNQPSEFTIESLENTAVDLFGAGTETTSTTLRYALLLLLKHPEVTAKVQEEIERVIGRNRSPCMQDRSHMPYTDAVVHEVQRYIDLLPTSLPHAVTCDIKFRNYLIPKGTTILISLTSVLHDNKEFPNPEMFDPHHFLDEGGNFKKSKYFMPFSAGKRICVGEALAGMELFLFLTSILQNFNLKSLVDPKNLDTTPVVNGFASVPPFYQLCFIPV
Sequence of Non-receptor tyrosine-protein kinase TYK2 (P29597 whole entry): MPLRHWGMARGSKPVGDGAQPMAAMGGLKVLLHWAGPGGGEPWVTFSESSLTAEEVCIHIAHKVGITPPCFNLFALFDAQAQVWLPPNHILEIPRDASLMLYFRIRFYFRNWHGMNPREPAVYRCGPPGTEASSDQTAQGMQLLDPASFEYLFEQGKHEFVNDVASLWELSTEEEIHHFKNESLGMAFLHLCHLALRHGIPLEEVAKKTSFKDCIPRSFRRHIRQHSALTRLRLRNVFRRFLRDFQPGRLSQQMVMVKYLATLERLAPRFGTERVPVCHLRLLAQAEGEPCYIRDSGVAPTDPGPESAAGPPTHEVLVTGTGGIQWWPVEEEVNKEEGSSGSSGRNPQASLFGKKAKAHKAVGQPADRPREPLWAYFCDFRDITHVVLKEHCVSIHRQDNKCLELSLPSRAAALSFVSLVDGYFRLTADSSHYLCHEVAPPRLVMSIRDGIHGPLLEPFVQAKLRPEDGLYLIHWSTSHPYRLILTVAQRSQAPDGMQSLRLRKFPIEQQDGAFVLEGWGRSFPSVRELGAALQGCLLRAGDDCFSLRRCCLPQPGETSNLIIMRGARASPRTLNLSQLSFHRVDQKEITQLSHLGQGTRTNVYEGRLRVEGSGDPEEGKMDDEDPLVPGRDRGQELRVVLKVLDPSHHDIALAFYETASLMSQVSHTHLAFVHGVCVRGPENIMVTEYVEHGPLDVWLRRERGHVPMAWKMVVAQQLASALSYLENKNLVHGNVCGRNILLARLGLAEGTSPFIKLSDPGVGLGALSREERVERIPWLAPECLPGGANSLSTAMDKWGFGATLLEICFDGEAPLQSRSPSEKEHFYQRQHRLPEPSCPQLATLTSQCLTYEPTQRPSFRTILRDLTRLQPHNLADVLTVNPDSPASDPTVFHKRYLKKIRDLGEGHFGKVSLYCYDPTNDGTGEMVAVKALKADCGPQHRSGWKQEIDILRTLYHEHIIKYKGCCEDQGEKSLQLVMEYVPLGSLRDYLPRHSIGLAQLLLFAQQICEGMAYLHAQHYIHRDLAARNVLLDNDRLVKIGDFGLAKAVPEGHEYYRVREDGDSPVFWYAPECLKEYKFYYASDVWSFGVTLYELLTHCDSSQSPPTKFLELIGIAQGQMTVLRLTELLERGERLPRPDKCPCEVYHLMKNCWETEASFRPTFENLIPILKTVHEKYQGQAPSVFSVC

As to `O=C(Nc1nc2cccc(C3CCC4(CC3)CN(C(=O)[C@@H]3CC3(F)F)C4)n2n1)C1CC1`, the CLH in [1] was less than 6.4 µL/min/mg; in [5], 9.1 µL/min/mg; in data set [7], less than 6.4 µL/min/mg. The compound further showed a clearance in [2] of 22.1 mL/min/kg. The compound further had a Vdss in data set [3] of 1.61 L/kg. In addition, the half-life in [4] is 2.01 h. For the same compound, the microsomal CLint at 1 µM in data set [6], in data set [9] and in [10] was less than 9.6 µL/min/mg each time. The values for the unbound share (fraction unbound) at 4 h, 2 µM in [8], in data set [11] and in data set [12] were 0.259, 0.176 and 0.26, respectively.

For `O=C(Nc1nc2cccc(C3CCC4(CC3)CCN(C(=O)[C@@H]3CC3(F)F)CC4)n2n1)C1CC1`, the IC50 was greater than 100 µM on Cytochrome P450 1A2; 46.8 µM against Cytochrome P450 2C9; 0.003 µM in data set [13]; 4.93 µM at Cytochrome P450 2C19; 0.026 µM in [17]; greater than 100 µM at Cytochrome P450 2C8. Further, the IC50 in data set [18] was 0.04 µM; on Cytochrome P450 3A4 it was greater than 100 µM. In addition, the CLH is less than 6.4 µL/min/mg in [1], 40.6 µL/min/mg in data set [5] and less than 6.4 µL/min/mg in data set [7]. For the same compound, the clearance in [2] worked out at 14.9 mL/min/kg. In addition, the Vdss in data set [3] came out at 0.942 L/kg. The half-life in [4] was 4.74 h. Further, the efflux ratio at 2 h, 10 µM in data set [14] worked out at 6.77. Besides, the Papp A→B at 2 h, 10 µM in data set [15] came to 4.29 ×10⁻⁶ cm/s. The microsomal CLint at 1 µM is less than 9.6 µL/min/mg in [6], less than 9.6 µL/min/mg in data set [9] and 20.8 µL/min/mg in data set [10]. Besides, the Ratio IC50 in the data set listed under Homo sapiens [16] was 8.7; in the data set listed under Homo sapiens [19] it was 13.3. For the same compound, the fraction unbound at 4 h, 2 µM in data set [8] came out at 0.057; in [11], 0.056; in data set [12], 0.067. Further, the Papp B→A at 2 h, 10 µM in data set [20] is 29.1 ×10⁻⁶ cm/s.

Regarding `O=C(Nc1nc2cccc(C3CCC4(CC3)CCN(C(=O)[C@@H]3CC3(F)F)C4)n2n1)C1CC1` (some centres undefined), the IC50 against Cytochrome P450 1A2 was greater than 100 µM; against Cytochrome P450 2C9, 49 µM; in data set [13], 0.031 µM; at Cytochrome P450 2C19, 64.3 µM; in data set [17] it was 0.067 µM; at Cytochrome P450 2C8, greater than 100 µM. For the same compound, the IC50 is 0.324 µM in data set [18] and greater than 100 µM against Cytochrome P450 3A4. Also, the CLH in data set [1] is less than 6.4 µL/min/mg; in [5], 134.3 µL/min/mg; in data set [7], 25.6 µL/min/mg. Besides, the efflux ratio at 2 h, 10 µM in [14] was determined as 19.5. Besides, the Papp A→B at 2 h, 10 µM in data set [15] turned out to be 1.6 ×10⁻⁶ cm/s. Moreover, the microsomal CLint at 1 µM in data set [6] was 11.3 µL/min/mg; in data set [9], 15.7 µL/min/mg; in [10], 46.5 µL/min/mg. The figures for the Ratio IC50 in the data set filed under Homo sapiens [16] and in the data set listed under Homo sapiens [19] were 2.2 and 10.5, respectively. For the same compound, the fraction unbound at 4 h, 2 µM in data set [8] was 0.112; in data set [11], 0.088; in data set [12], 0.205. Besides, the Papp B→A at 2 h, 10 µM in data set [20] is 31.2 ×10⁻⁶ cm/s.

Consider `O=C(Nc1nc2cccc([C@H]3CC[C@@H](NC(=O)[C@@H]4CC4(F)F)CC3)n2n1)C1CC1`, for which the IC50 against Cytochrome P450 1A2 was […]; against Cytochrome P450 2C9 it was […]; in data set [13] it was 0.002 µM; against Cytochrome P450 2C19, 75 µM; in [17] it was […]; against Cytochrome P450 2C8 it was […]. In addition, the figures for the IC50 (in data set [18]; at Cytochrome P450 3A4) were […] and […], respectively. Besides, the results for the CLH in data set [1], in data set [5] and in [7] were […], […] and […], respectively. The same compound had a clearance in data set [2] of 9.58 mL/min/kg. In addition, the Vdss in data set [3] is 0.501 L/kg. For the same compound, the half-life in [4] is […]. Moreover, in [14], the efflux ratio at 2 h, 10 µM stood at […]. In addition, the Papp A→B at 2 h, 10 µM in data set [15] came out at […]. Moreover, the microsomal CLint at 1 µM was less than 9.6 µL/min/mg in data set [6], 16.9 µL/min/mg in [9] and […] in data set [10]. The results for the Ratio IC50 in the data set listed under Homo sapiens [16] and in the data set listed under Homo sapiens [19] were […] and […], respectively. The results for the fraction unbound at 4 h, 2 µM in data set [8], in data set [11] and in data set [12] were […], 0.085 and 0.156, respectively. The Papp B→A at 2 h, 10 µM in data set [20] was found to be […].
